Experimental data as given in patent EP0823908B1, “PYRIDO[2,3-d]PYRIMIDINES FOR INHIBITING PROTEIN TYROSINE KINASE MEDIATED [sequence] PROLIFERATION” (Warner-Lambert Company LLC, priority 1995, dated 1996).

Key:
Type in all cases: biochemical
[1] = molecular target: T1, C-src kinase (Homo sapiens, UniProt P12931); assay: C-src kinase assay (poly GluTyr substrate); settings: for IC50: read-out: C-src TK IC50; for inhibition at 50 µM: read-out: C-src TK % Inhibition at 50 µM
T1 construct: made in house; host or cells: baculovirus infected insect cells
T1 sequence (P12931 whole entry): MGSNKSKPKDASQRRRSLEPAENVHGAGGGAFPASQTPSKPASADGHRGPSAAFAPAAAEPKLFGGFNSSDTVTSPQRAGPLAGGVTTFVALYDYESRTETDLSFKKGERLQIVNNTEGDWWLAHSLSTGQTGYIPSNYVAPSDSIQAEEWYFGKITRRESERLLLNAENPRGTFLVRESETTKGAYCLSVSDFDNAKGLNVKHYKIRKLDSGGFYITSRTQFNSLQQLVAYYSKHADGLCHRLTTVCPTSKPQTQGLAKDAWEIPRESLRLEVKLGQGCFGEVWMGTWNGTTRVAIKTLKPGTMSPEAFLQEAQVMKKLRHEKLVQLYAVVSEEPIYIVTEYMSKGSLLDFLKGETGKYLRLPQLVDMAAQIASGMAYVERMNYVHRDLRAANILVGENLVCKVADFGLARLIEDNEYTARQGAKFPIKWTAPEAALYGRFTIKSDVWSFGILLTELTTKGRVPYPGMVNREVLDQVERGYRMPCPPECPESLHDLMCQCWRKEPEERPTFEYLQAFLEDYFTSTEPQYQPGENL
Protocol: V-src or C-src kinase is purified from baculovirus infected insect cell lysates using an antipeptide monoclonal antibody directed against the N-terminal 2-17 amino acids. The antibody, covalently linked to 0.65-µm latex beads, is added to a suspension of insect cell lysis buffer comprised of 150 mM NaCl, 50 mM Tris pH 7.5, 1 mM DTT, 1% NP-40, 2 mM EGTA, 1 mM sodium vanadate, 1 mM PMSF, 1 µg/mL each of leupeptin, pepstatin, and aprotinin. […] At the end of the lysate incubation, the beads are rinsed 3 times in lysis buffer, resuspended in lysis buffer containing 10% glycerol, and frozen. These latex beads are thawed, rinsed 3 times in assay buffer which is comprised of 40 mM tris pH 7.5, 5 mM MgCl2, and suspended in the same buffer. In a Millipore 96-well plate with a 0.65 µm polyvinylidine membrane bottom are added the reaction components: 10-µL V-src or C-src beads, 10 µL of 2.5 mg/mL poly GluTyr substrate, 5 µM ATP containing 0.2 µCi labeled ^32P-ATP, 5µL DMSO containing inhibitors or as a solvent control, and buffer to make the final volume 125 µL. The reaction is started at room temperature by addition of the ATP and quenched 10 minutes later by the addition of 125 µL of 30% TCA, 0.1 M sodium pyrophosphate for 5 minutes on ice. […] The filters are punched, counted in a liquid scintillation counter, and the data examined for inhibitory activity in comparison to a known inhibitor such as erbstatin.

[2] = molecular target: T2, mouse PDGF-β receptor tyrosine kinase (Mus musculus, UniProt P05622); assay: PDGF receptor tyrosine kinase assay (32P incorporation into glutamate-tyrosine co-polymer); settings: for IC50: read-out: PDGFr-TK IC50; for inhibition at 50 µM: read-out: PDGFr-TK % Inhibition at 50 µM
T2 construct: amplify a fragment of DNA that codes for the intracellular tyrosine kinase domain; made in house; host or cells: SF9 insect cells (baculovirus)
T2 sequence (P05622 599-961 limits assumed): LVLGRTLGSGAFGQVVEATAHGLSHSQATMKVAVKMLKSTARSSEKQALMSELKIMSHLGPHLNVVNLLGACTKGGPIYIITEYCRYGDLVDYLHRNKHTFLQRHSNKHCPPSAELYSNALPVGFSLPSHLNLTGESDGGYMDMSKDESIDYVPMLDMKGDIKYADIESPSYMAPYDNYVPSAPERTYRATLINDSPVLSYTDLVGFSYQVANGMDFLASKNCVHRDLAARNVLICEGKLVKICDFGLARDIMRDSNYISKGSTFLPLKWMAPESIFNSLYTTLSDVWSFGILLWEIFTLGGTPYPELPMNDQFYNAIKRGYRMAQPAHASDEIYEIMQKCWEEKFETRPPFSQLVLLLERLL
From the text: (§1) Full length cDNAs for the mouse PDGF-β and human FGF-1 (flg) receptor tyrosine kinases were obtained from J. Escobedo and prepared as described in J. Biol. Chem., 262:1482-1487 […], and PCR primers were designed to amplify a fragment of DNA that codes for the intracellular tyrosine kinase domain. The fragment was melded into a baculovirus vector, cotransfected with AcMNPV DNA, and the recombinant virus isolated. SF9 insect cells were infected with the virus to overexpress the protein, and the cell lysate was used for the assay. The assay was performed in 96-well plates (100 µL/incubation/well), and conditions were optimized to measure the incorporation of ^32P from γ^32P-ATP into a glutamate-tyrosine co-polymer substrate. Briefly, to each well was added 82.5 µL of incubation buffer containing 25 mM Hepes (pH 7.0), 150 mM NaCl, 0.1% Triton X-100, 0.2 mM PMSF, 0.2 mM Na3VO4, 10 mM MnCl2, and 750 µg/mL of Poly (4:1) glutamate-tyrosine followed by 2.5 µL of inhibitor and 5µL of enzyme lysate (7.5 µg/µL FGF-TK or 6.0 µg/µL PDGF-TK) to initiate the reaction. Following a 10 minute incubation at 25°C, 10 µL of γ^32P-ATP (0.4 µCi plus 50 µM ATP) was added to each well and samples were incubated for an additional 10 minutes at 25°C. The reaction was terminated by the addition of 100 µL of 30% trichloroacetic acid (TCA) containing 20 mM sodium pyrophosphate and precipitation of material onto glass fiber filter mats (Wallac). […] Nonspecific activity was defined as radioactivity retained on the filters following incubation of samples with buffer alone (no enzyme). Specific enzymatic activity was defined as total activity (enzyme plus buffer) minus nonspecific activity.

[3] = molecular target: T3, Human EGF receptor tyrosine kinase (Homo sapiens, UniProt P00533); assay: EGF receptor tyrosine kinase enzyme assay (substrate peptide phosphorylation); settings: for inhibition at 50 µM: read-out: EGF-FL % Inhibition at 50 µM; for IC50: read-out: EGF-FL IC50
T3 construct: Human EGF receptor tyrosine kinase was isolated from A431 epidermoid carcinoma cells; endogenous in cells; host or cells: A431 epidermoid carcinoma cells
T3 sequence (P00533 25-1210): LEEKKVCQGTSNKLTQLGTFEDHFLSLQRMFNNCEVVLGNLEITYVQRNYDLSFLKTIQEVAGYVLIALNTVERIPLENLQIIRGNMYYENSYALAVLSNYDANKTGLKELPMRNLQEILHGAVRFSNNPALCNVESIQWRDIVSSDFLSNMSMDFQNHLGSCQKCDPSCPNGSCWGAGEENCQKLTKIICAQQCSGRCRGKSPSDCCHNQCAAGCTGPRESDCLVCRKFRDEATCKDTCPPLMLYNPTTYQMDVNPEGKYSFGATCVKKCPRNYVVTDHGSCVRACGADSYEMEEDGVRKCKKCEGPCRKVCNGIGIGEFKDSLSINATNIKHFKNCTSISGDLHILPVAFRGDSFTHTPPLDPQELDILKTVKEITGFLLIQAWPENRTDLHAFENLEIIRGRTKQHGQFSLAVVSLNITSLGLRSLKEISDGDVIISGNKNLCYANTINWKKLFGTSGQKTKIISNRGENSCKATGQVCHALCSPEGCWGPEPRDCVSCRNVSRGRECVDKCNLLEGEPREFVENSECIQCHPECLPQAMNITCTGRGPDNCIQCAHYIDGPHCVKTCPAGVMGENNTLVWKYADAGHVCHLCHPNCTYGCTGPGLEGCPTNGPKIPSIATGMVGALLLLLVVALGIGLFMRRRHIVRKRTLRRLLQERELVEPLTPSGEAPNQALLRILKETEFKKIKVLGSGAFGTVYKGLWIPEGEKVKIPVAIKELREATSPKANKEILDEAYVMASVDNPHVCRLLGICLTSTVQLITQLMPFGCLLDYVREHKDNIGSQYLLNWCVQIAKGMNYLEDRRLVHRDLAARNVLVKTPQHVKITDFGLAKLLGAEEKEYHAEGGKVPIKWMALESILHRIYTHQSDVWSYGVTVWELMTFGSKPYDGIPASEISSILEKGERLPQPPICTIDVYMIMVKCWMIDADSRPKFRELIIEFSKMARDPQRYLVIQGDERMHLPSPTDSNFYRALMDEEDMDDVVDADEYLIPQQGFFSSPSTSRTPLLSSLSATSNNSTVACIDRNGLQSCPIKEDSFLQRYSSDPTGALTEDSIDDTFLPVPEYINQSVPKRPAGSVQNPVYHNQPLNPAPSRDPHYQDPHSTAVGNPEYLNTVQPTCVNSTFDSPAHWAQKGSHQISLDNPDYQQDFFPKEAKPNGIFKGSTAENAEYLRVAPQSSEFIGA
Protocol: Human EGF receptor tyrosine kinase was isolated from A431 epidermoid carcinoma cells by the following methods. Cells were grown in roller bottles in 50% Dulbecco's Modified Eagle medium and 50% HAM F-12 nutrient media (Gibco) containing 10% fetal calf serum. Approximately 10^9 cells were lysed in two volumes of buffer containing 20 mM 2-(4N-[2-hydroxymethyl]-piperazin-1-yl)ethanesulfonic acid, pH 7.4, 5 mM ethylene glycol bis(2-aminoethyl ether) N,N,N',N'-tetraacetic acid, 1% Triton X-100, 10% glycerol, 0.1 mM sodium orthovanadate, 5 mM sodium fluoride, 4 mM pyrophosphate, 4 mM benzamide, 1 mM dithiothreitol, 80 µg/mL aprotinin, 40 µg/mL leupeptin, and 1 mM phenylmethylsulfonyl fluoride. […] Contaminating proteins were washed from the resin with 1 M NaCl in equilibration buffer, and the enzyme was eluted with 0.5 M N-acetyl-1-D-glucosamine in equilibration buffer.
The reaction was terminated by the addition of 2 mL of 75 mM phosphoric acid and passed through a 2.5-cm phosphocellulose filter disc to bind the peptide. The filter was washed 5 times with 75 mM phosphoric acid and placed in a vial along with 5 mL of scintillation fluid (Ready gel Heckman).

[4] = molecular target: T4, human FGF-1 (flg) receptor tyrosine kinase (Homo sapiens, UniProt P11362); assay: FGF receptor tyrosine kinase assay (32P incorporation into glutamate-tyrosine co-polymer); settings: for IC50: read-out: FGFr-TK IC50; for inhibition at 50 µM: read-out: FGFr-TK % Inhibition at 50 µM
T4 construct: amplify a fragment of DNA that codes for the intracellular tyrosine kinase domain; made in house; host or cells: SF9 insect cells (baculovirus)
T4 sequence (P11362 478-767 limits assumed): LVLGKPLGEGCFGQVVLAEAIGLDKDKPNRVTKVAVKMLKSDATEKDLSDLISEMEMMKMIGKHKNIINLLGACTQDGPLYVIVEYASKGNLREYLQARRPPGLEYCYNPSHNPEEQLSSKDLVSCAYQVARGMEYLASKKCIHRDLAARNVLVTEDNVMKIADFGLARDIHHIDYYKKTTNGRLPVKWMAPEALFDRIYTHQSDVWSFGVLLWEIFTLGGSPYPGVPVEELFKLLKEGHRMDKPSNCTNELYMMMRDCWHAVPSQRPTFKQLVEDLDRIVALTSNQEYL
From the text: as §1

| Structure (SMILES) | IC50 [1] [nM] | IC50 [2] [nM] | inhibition at 50 µM [3] [%] | inhibition at 50 µM [1] [%] | IC50 [4] [nM] | IC50 [3] [nM] | inhibition at 50 µM [2] [%] | inhibition at 50 µM [4] [%] |
| --- | --- | --- | --- | --- | --- | --- | --- | --- |
| CCn1c(=O)c(-c2c(Cl)cccc2Cl)cc2cnc(N)nc21 [Example 30, 2-Amino-6-(2,6-dichlorophenyl)-8-ethyl-pyrido[2,3-d]-pyrimidin-7(8H)-one] | 155 | 980 | 77 |  |  |  |  |  |
| Cn1c(=O)c(-c2c(Cl)cccc2Cl)cc2cnc(NCCCN3CCOCC3)nc21 [Example 47, 6-(2,6-Dichlorophenyl)-8-methyl-2-(3-morpholin-4-yl-propylamino)-8H-pyrido[2,3-d]pyrimidin-7-one] |  | 5980 | 70 | 36 |  |  |  |  |
| Cn1c(=O)c(-c2c(Cl)cccc2Cl)cc2cnc(NC3CCCCC3)nc21 [Example 60, 2-Cyclohexylamino-6-(2,6-dichlorophenyl)-8-methyl-8H-pyrido[2,3-d]pyrimidin-7-one] | 1640 | 9380 |  |  | 6520 |  |  |  |
| Cn1c(=O)c(-c2c(Cl)cccc2Cl)cc2cnc(NCCCCCC(=O)OC(C)(C)C)nc21 [Example 61, 6-[6-(2,6-Dichlorophenyl)-8-methyl-7-oxo-7,8-dihydro-pyrido[2,3-d]pyrimidin-2-ylamino]-hexanoic acid, tert-butyl ester] |  | 26500 |  | 64 | 8600 |  |  |  |
| COc1ccc(Nc2ncc3cc(-c4c(Cl)cccc4Cl)c(=O)n(C)c3n2)cc1 [Example 64, 6-(2,6-Dichlorophenyl)-2-(4-methoxyphenylamino)-8-methyl-8H-pyrido[2,3-d]pyrimidin-7-one] |  | 546 |  |  | 403 | 65 |  |  |
| COc1cccc(Nc2ncc3cc(-c4c(Cl)cccc4Cl)c(=O)n(C)c3n2)c1 [Example 72, 6-(2,6-Dichlorophenyl)-2-(3-methoxyphenylamino)-8-methyl-8H-pyrido[2,3-d]pyrimidin-7-one] | 52 |  |  |  |  | 33 |  |  |
| Cn1c(=O)c(-c2c(Cl)cccc2Cl)cc2cnc(Nc3cccc(O)c3)nc21 [Example 87, 6-(2,6-Dichlorophenyl)-2-(3-hydroxyphenylamino)-8-methyl-8H-pyrido[2,3-d]pyrimidin-7-one] |  | 350 |  |  |  | 140 |  |  |
| CCOC(=O)c1ccc(Nc2ncc3cc(-c4c(Cl)cccc4Cl)c(=O)n(C)c3n2)cc1 [Example 88, 4-[6-(2,6-Dichlorophenyl)-8-methyl-7-oxo-7,8-dihydro-pyrido[2,3-d]pyrimidin-2-ylamino]-benzoic acid, ethyl ester] | 95 | 38000 |  |  | 69000 |  |  |  |
| CCOC(=O)c1cccc(Nc2ncc3cc(-c4c(Cl)cccc4Cl)c(=O)n(C)c3n2)c1 [Example 89, 3-[6-(2,6-Dichlorophenyl)-8-methyl-7-oxo-7,8-dihydro-pyrido[2,3-d]pyrimidin-2-ylamino]-benzoic acid, ethyl ester] | 14 | 1480 |  |  | 1490 |  |  |  |
| Nc1ncc2cc(-c3c(Cl)cccc3Cl)c(=O)n(CC(=O)O)c2n1 [Example 107, [2-Amino-6-(2,6-dichlorophenyl)-7-oxo-7H-pyrido[2,3-d]-pyrimidin-8-yl]-acetic acid] |  |  |  | 52 | 9240 |  | 43 |  |
| CCn1c(=O)c(-c2cc(C)cc(C)c2)cc2cnc(Nc3ccccc3)nc21 [Example 118, 6-(3,5-Dimethylphenyl)-8-ethyl-2-phenylamino-8H-pyrido[2,3-d]pyrimidin-7-one] |  |  |  | 0 |  |  | 12 | 29 |
| CCn1c(=O)c(-c2ccncc2)cc2cnc(Nc3ccccc3)nc21 [Example 120, 8-Ethyl-2-phenylamino-6-pyridin-4-yl-8H-pyrido[2,3-d]-pyriminin-7-one] |  | 1830 |  | 29 |  |  |  | 2 |
| CCn1c(=O)c(-c2ccc(-c3ccccc3)cc2)cc2cnc(Nc3ccccc3)nc21 [Example 124, 6-Biphenyl-4-yl-8-ethyl-2-phenylamino-8H-pyrido[2,3-d]-pyrimidin-7-one] |  |  |  | 11 |  |  | 38 | 15 |
